Experimental findings from patent US12048679B2, “P53-destabilizing protein associated with proto-oncogene stemness as a therapeutic target and inhibitors thereof for use in treatment of cancer” (University of Southern California, priority 2021, dated 2024) are described below.

Entries after “also recorded” stand apart in the source; their conditions may differ.

Data set [1] concerns NOTCH1 (NICD level) in CD133(+) or (−) TICs. In words: NOTCH1 processing: NICD produced after EDTA and DAPT treatment, Western blot. Type of data set: cell-based. Conditions: 20 μM DAPT (4 h) with 5 mM EDTA (20 min), CD133-positive and negative TICs. On the procedure:
FIGS. 1M and 1N depict that TBC1D15 affects NOTCH1 processing. • (1M) Western blot analysis for expression of endogenous NOTCH1 and N1ΔE-myc tag in CD133-positive and negative TICs, transfected with N1ΔE-FL and N1ΔE-ΔPEST and treated with vehicle or 20 μM DAPT (for 4 h), and 5 mM EDTA (for 20 min). • (1N) Western blot analysis for endogenous NOTCH1 and N1ΔE-myc tag in CD133-positive and negative TICs, transfected with N1ΔE-FL, N1ΔE-ΔPEST, and N1ΔE-V1745L (inhibition of gamma-secretase cleavage) and treated with vehicle or 20 μM DAPT.
Pin1 is known to promote tumor formation by binding to the NOTCH/NICD STR domain and regulating its activity. To determine how TBC1D15 affects NOTCH1 activity, we tested whether it regulates NOTCH1 processing through a combination of a disintegrin and metalloproteinase (ADAM) 17 and γ-secretase. We overexpressed a membrane-tethered, ligand-independent wild type NOTCH1, a NOTCH1 derivative [NΔE, that is constitutively cleaved by γ-secretase, releasing active NICD (Rustighi et al., EMBO Mol Med 6, 99-119. 10.1002/emmm.201302909)], NΔE-ΔPEST, and NΔE-V1745L in CD133(+) or (−) TICs. We then analyzed the effects of TBC1D15 on endogenous NOTCH1 processing by measuring the amount of NICD produced after ethylenediaminetetraacetic acid (EDTA) and DAPT treatment in vitro.

Data set [2] concerns CD133-positive TICs / CD133+ Huh7 cells. In words: Viability screening, CD133-positive cells. Type of data set: cell-based. Conditions: FIG. 7C middle.
The subject of data set [3] is p53, N1ICD and NANOG protein levels. As to the kind of experiment: Immunoblots of xenograft tumors. Type of data set: in vivo, NSG mice. Particulars: Inhibitor A-treated xenograft tumors, FIG. 7G. The source says:
(§1) FIGS. 7A-7G depict that activated NOTCH can be targeted by small molecule inhibitors. • (7A) Analyses of 3D structure of TBC1D15-NOTCH1 interaction identified TBC1D15 N terminal region docking with a.a.1805-2113 of NOTCH1. […] See SEQ ID NOs:6-12 and 1, as depicted. Both were labeled with FITC and used with recombinant TBC1D15 for fluorescence polarization assay. The mutant served as a negative control. […] HA-NUMB-3D is HA-tagged phosphor-mimetic mutant of NUMB protein wherein three serine resides of phosphorylation sites are all replaced with phosphor-mimetic amino acid, D (aspartic acid), to have constitutively phosphorylated status of NUMB protein that reduce the binding ability between NOTCH and NUMB. […] We then tested the therapeutic efficacy of the Inhibitor A in the PDX model of HCC. When the two oncogenic targets were restored by use of AAV vector-mediated co-transduction of both activated N1ICD and phosphormimetic NUMB, the tumor-killing effect of Inhibitor A was negated. Inhibitor A's tumor killing effects are largely dependent upon the inhibition of NOTCH activation and suppressing NUMB phosphorylation status.
PDX mice were treated with the optimum dosing schedule. We monitored tumor sizes weekly three weeks post-transplantation for a total of 4 weeks (until the end of week 7). (If the tumor size reaches a diameter of ≥1.5 cm before 7 wk, we euthanized the mice per the IACUC guideline for tumor-bearing mice.) Our prior experience with the untreated HCC PDX model is 5-7 weeks are needed to generate tumors of the desired size (FIG. 7F). Experimental animals were euthanized at the end of the seven weeks study period and all tumor tissues were collected for histology for tumor characterization. Immunoblots were used to detect levels of for NANOG, TBC1D15, NICD, HES1 or HEY, CD133, p53, NUMB, and pS265-NUMB (FIG. 7G). Immunohistochemistry analysis was performed to monitor the expression of CD133, NANOG, p53, and Ki67.

Data set [4] concerns NANOG-GFP reporter. In words: NANOG-GFP reporter in Huh7 cell line, FACS. Type of data set: cell-based. Conditions: FIG. 7C right.
Data set [5] concerns the target T1, TBC1D15-NOTCH interaction (Homo sapiens, UniProt Q8TC07).
T1 sequence (Q8TC07 1-691): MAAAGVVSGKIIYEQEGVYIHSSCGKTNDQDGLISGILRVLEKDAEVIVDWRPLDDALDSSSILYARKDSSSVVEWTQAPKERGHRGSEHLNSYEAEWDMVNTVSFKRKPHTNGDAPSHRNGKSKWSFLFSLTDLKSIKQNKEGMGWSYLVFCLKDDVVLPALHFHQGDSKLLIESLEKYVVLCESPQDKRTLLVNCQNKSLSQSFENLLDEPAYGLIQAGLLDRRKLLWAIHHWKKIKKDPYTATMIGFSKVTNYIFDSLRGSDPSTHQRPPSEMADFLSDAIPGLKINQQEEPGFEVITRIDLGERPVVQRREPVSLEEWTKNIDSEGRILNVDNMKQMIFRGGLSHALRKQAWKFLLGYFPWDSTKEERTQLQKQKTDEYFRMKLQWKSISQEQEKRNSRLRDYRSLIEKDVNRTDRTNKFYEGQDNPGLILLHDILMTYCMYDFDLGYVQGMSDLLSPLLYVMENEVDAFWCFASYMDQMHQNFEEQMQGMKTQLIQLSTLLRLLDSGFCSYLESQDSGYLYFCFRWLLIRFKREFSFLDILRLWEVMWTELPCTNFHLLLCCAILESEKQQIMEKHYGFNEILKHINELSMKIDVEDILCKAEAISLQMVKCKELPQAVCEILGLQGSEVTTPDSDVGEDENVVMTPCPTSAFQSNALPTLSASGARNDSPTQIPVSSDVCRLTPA
In words: Fluorescence polarization assay of FITC-tagged NOTCH1 PEST/STR domain peptide with recombinant TBC1D15. Conditions: FIG. 7C left. Format: binding. An excerpt:
FIGS. 7A-7G depict that activated NOTCH can be targeted by small molecule inhibitors. • (7A) Analyses of 3D structure of TBC1D15-NOTCH1 interaction identified TBC1D15 N terminal region docking with a.a.1805-2113 of NOTCH1. […] See SEQ ID NOs:6-12 and 1, as depicted. Both were labeled with FITC and used with recombinant TBC1D15 for fluorescence polarization assay. The mutant served as a negative control. […] HA-NUMB-3D is HA-tagged phosphor-mimetic mutant of NUMB protein wherein three serine resides of phosphorylation sites are all replaced with phosphor-mimetic amino acid, D (aspartic acid), to have constitutively phosphorylated status of NUMB protein that reduce the binding ability between NOTCH and NUMB. […]
In some embodiments, an inhibitor of TBC1D15 is a compound that inhibits binding of TBC1D15 with NOTCH, or inhibits the interaction between TBC1D15 and NOTCH. […] In yet another aspect, the inhibitor of TBC1D15 can be identified through a fluorescence polarization assay, wherein a fluorophore-labeled, binding domain of NOTCH1 (e.g., the STR domain or the PEST domain, or a peptide fragment thereof, within NICD) would have an increased fluorescence polarization (FP) when it is non-covalently bound to TBC1D15, as depicted in FIG. 7B, or a decreased FP when it is not bound to TBC1D15 due to the presence of an inhibitor of TBC1D15. […]
For orientation: Fluorescence polarisation rises when a labelled molecule tumbles more slowly, as on binding a larger partner.

The subject of data set [6] is HEY1-CFP reporter (NOTCH-CFP). As to the kind of experiment: HEY1-CFP (NOTCH-CFP) reporter in Huh7 cell line, FACS. Conditions: FIG. 7C right. Type of data set: cell-based.
In data set [7] the test system is primary hepatocytes. In words: Viability of primary hepatocytes. Format: cell-based. Conditions: FIG. 7C middle.
Excerpt: as §1

Data set [8] deals with patient HCC. In words: Patient-derived xenograft (PDX) model of HCC in NSG mice. Type of data set: in vivo.
Excerpt: as §1
PDX mice were treated with the optimum dosing schedule. We monitored tumor sizes weekly three weeks post-transplantation for a total of 4 weeks (until the end of week 7). (If the tumor size reaches a diameter of ≥1.5 cm before 7 wk, we euthanized the mice per the IACUC guideline for tumor-bearing mice.) Our prior experience with the untreated HCC PDX model is 5-7 weeks are needed to generate tumors of the desired size (FIG. 7F). […]
To test the therapeutic efficacy of the new inhibitor for its effect on TBC1D15-NICD interaction, we employed a true patient-derived xenograft (PDX) HCC model (FIG. 7F). We determined if newly identified small molecule inhibitors of the TBC1D15-NICD interaction would prevent tumor growth in the HCC PDX mouse model and specifically if this therapeutic effect was negatively affected by NICD expression, NUMB-3D expression, or the co-expression of NICD and NUMB-3D.
Background: A xenograft is tissue or cells of one species grown in another, often human tumour cells in immunodeficient mice.

Data set [9] relates to dsRed-labeled TICs. In words: Tumor growth of dsRed-labeled TICs transplanted subcutaneously into NSG mice. Type of data set: in vivo. Conditions: for tumors with fluorescence emission (dsRed imaging): FIG. 7E.
Excerpt: as §1
We tested the therapeutic efficacy of Inhibitor A in the patient-derived xenograft (PDX) model of HCC. […] A separate pharmacokinetic study was conducted at three doses (10, 20, 40 mg/kg) administered i.p. into NSG mice to determine blood and tissue levels of the Inhibitor and tissue histology. From these studies, we assessed pharmacokinetic, toxicity, and efficacy data to select an optimal dosing scheme.

For data set [10], the system named is CD133-negative TICs / CD133− Huh7 cells. As to the kind of experiment: Viability screening, CD133-negative control cells. Conditions: FIG. 7C middle. Type of data set: cell-based.

With `C[C@H](NC(=O)Cc1cc(F)cc(F)c1)C(=O)N[C@H](C(=O)OC(C)(C)C)c1ccccc1` [DAPT, N—[N-(3,5-Difluorophenacetyl)-L-alanyl]-S-phenylglycine t-butyl ester], in data set [1], the “effect on NICD level” value is given as “no observed effect on NICD level”.

Turning to `O=C(O)CCC/C=C\C[C@@H]1[C@@H](CC[C@@H](O)CCc2ccccc2)[C@H](O)C[C@@H]1O` [Inhibitor A, (5Z,9α, 11α, 15R)-9,11,15-Trihydroxy-17-phenyl-18,19,20-trinor-prost-5-en-1-oic acid], in data set [2], the “toxicity to CD133-positive cells” value was “selectively killed CD133 positive TICs; also recorded: selectively kills CD133^+ Huh7 cells”. In addition, in [3], the “N1ICD protein level in xenograft tumors” value was “reduced N1ICD and NANOG protein levels”; the “NANOG protein level in xenograft tumors” value is “reduced N1ICD and NANOG protein levels”; the “p53 protein level in xenograft tumors” value is recorded as “elevated p53 protein level”. In addition, the “NANOG-GFP / NANOG promoter reporter activity” value in [4] was “reduced HEY1 and NANOG promoter activities; also recorded: abrogates NOTCH-CFP and NANOG-GFP reporter activities”. For the same molecule, in data set [5], the “inhibition of NOTCH-TBC1D15 interaction” value is “effectively blocked the NOTCH-TBC1D15 interaction; also recorded: suppressed interaction between TBC1D15 and NICD; also recorded: blocked NOTCH1/3-TBC1D15 interactions”. In addition, in data set [6], the “NOTCH-CFP / HEY1 promoter reporter activity” value was “reduced HEY1 and NANOG promoter activities; also recorded: abrogates NOTCH-CFP and NANOG-GFP reporter activities”. Also, in [7], the “toxicity to primary hepatocytes” value was “not CD133^− Huh7 cells or primary hepatocytes”. In addition, in [8] (HCC tissues infected with AAV vector delivering N1ICD and HA-NUMB-3D before transplantation), the “growth suppression of patient HCC after N1ICD and HA-NUMB-3D co-transduction” value was “this effect largely diminished”. The “therapeutic effect under NICD overexpression” value in [8] (NICD overexpression) is “NICD overexpression blocked the therapeutic effect”. In addition, the “growth of patient HCC transplanted into NSG mice” value in data set [8] (PDX model, FIG. 7F) is listed as “suppressed the growth of patient HCC”. Also, the “tumors with fluorescence emission (dsRed imaging)” value in data set [9] (10 mg/kg dose) is reported as “Tumors with fluorescence emission were detected”. Moreover, in data set [9] (40 mg/kg i.p. 5 times a week), the “inhibition of tumor growth” value is given as “significant inhibition of tumor growth”. Moreover, the “effect on tumor growth” value in [9] (dose series, NSG mice with dsRed-labeled TICs, FIG. 7D) was “dose-dependent inhibitory effect”. Moreover, the “tumors with fluorescence emission (dsRed imaging)” value in data set [9] (doses higher than 10 mg/kg) is listed as “not in those treated with higher doses”. For the same molecule, the “toxicity to CD133-negative cells” value in data set [10] is “not CD133^− Huh7 cells”.
